Experimental findings from patent US8759481B2, “Peptide vaccines for cancers expressing tumor-associated antigens” (Oncotherapy Science, Inc., priority 2007, dated 2014) are described below.

“Also recorded” adds a separate entry of the source. Ends that are not written are not given here.

Common to all, as to type: cell-based, human
The subject of data set [1] is COS7 transfected with full length ECT2 gene and HLA-A*2402. In words: Specific CTL activity against transfected target cells. The note with it: CTL clone or line raised by the peptide, vs control transfectants. How it is done:
(§1) Briefly, peptide-pulsed A24-LCL or T2 cell (1×10^4/well) was prepared as stimulator cells. Cultured Cells in 48 wells or CTL clones after limiting dilution were used as responder cells. IFN-gamma ELISPOT assay and ELISA assay were performed under manufacture procedure.
(§2) The cDNA encoding an open reading frame of target genes or HLA-A02 or HLA-A24 was amplified by PCR. The PCR-amplified product was cloned into pcDNA3.1 myc-His vector (Invitrogen). The plasmids were transfected into the target cells, HLA-A02 and HLA-A24-null normal human cell line COS7 or 293T using lipofectamine (Invitrogen) according to the manufacturer's recommended procedures. Alternatively, the plasmid contained the target genes were transfected into A24-LCL by electroporation using GenePulserII (Biorad). Briefly, 2.5×10^6 A24-LCL cells were pulsed with 10 mcg prasmid at 140V and 1000 micro F. After 2 days from transfection, the transfected cells were treated with Cell dissociation solution and used as the target cells for CTL activity assay.
The established CTL line raised against these peptides were examined for their ability to recognize the target cells expressing ECT2 and HLA-A*2402. […] COS7 transfected with full length ECT2 but not HLA-A*2402 and COS7 transfected with HLA-A*2402 but not full length ECT2 (replaced other gene e.g. URLC10 or INHBB) were prepared as controls.

Data set [2] deals with peptide-pulsed A24-LCL cells. Description: IFN-gamma ELISPOT assay (positive wells). Conditions: HLA-A24 peptides; as compared to the control. The essentials:
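PBMC-derived DCs from HLA-A*2402 and/or A*0201 donors, pulsed with 20 micro g/ml peptide plus 3 micro g/ml beta 2-microglobulin, stimulated autologous CD8+ T cells three times (days 0, 7, 14). On day 21, responders were tested against peptide-pulsed A24-LCL or T2 cells by IFN-gamma ELISPOT. Values are reported as positive wells/wells tested; CTL lines confirmed by ELISA.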

Data set [3] relates to peptide-pulsed A24-LCL cells. Description: CTL line establishment, IFN-gamma ELISA. The note with it: HLA-A24 peptides; vs target without peptide pulse. The essentials: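 CTL lines were expanded with MMC-inactivated B-lymphoblastoid feeders, 40 ng/ml anti-CD3 and IL-2 in AIM-V/5% AS. IFN-gamma ELISPOT identified specific wells, and ELISA determined established lines, using responders stimulated by peptide-pulsed A24-LCL or T2 cells at 1×10^4/well.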
Background: An ELISA detects its analyte on a solid surface through an enzyme-linked reagent.

In data set [4] the test system is COS7 transfected with full length CDH3 gene and HLA-A*2402. Description: Specific CTL activity against transfected target cells. The note with it: CTL clones raised by the peptide; vs single transfectants; listed as CDH3-A24-10-655. How it is done: as §1, §2
The established CTL line raised against these peptides were examined for their ability to recognize the target cells expressing CDH3 and HLA-A*2402. […] COS7 transfected with full length CDH3 but not HLA-A*2402 and COS7 transfected with HLA-A*2402 but not full length CDH3 were prepared as controls.

In data set [5] the test system is peptide-pulsed A24-LCL cells. Description: CTL clones by limiting dilution, specific CTL activity. Conditions: HLA-A24 peptides; vs target without peptide pulse. How it is done: The dilutions were made to have 0.3, 1, and 3 CTLs/well in 96 round-bottomed micro titer plate (Nalge Nunc International). CTLs were cultured with 7×10^4 cells/well of 2 kinds of human B-lymphoblastoid cell lines, 30 ng/ml of anti-CD3 antibody, and 125 U/ml of IL-2 in total of 150 micro 1/well of AIM-V containing 5% AS. 50 micro 1/well of IL-2 was added to the medium 10 days later so that IL-2 became 125 U/ml in the final concentration. CTL activity of CTLs was tested on the 14th day, and CTL clones were expanded using the same method above.
as §1

For data set [6], the system named is target cells pulsed with the peptide. In words: 51Cr release cytotoxicity assay. The method, then: (§3) Cytotoxic activity was evaluated by a four-hour ^51Cr release assay. The target cells were pulsed with a 20 micro g/mL concentration of peptide overnight. The target cells were labeled with 100 micro Ci of Na2^51CrO4 at 37 degrees C. for one hour, and then washed three times with RPMI1640. The target cells (1×10^4/100 micro L) and 100 micro L of effector cells at various numbers with a total volume of 200 micro L were placed into a round-bottomed 96-well microtiter plate (Corning), and cultured at 37 degrees C. in a CO2 incubator for four hours. After culturing, 100 micro L of the supernatant was collected from each well, and measured the radioactivity using a gamma counter. Spontaneous release was the radioactivity from the target cells with medium in the absence of effector cells, and maximum release was the radioactivity from the target cells with 1 M HCl.
(§4) The Percentage of specific cytotoxicity was determined by calculating as following formula: % Specific lysis=[(experimental release−spontaneous release)/(maximum release−spontaneous release)]×100. Results Enhanced CDH3, EPHA4, ECT2, HIG2, INHBB, KIF20A, KNTC2, TTK and URLC10 Expression in Cancers

Data set [7] concerns MIAPaca2 cancer cell line. In words: 51Cr release cytotoxicity assay. How it is done: as §3, §4
Furthermore, Cytotoxic activity was performed by cytotoxicity assay according to the protocols set forth in the “Materials and Methods” section above. […]

Another data set has as its system Caki-1 cancer cell line. Description: 51Cr release cytotoxicity assay. The note with it: Caki-1 expressing INHBB but not HLA-A02. The method, then:
as §3, §4
(§5) Furthermore, Cytotoxic activity was examined by cytotoxicity assay according to the protocols set forth in the “Materials and Methods” section above.

Data set [8] deals with COS7 transfected with full length KIF20A gene and HLA-A*2402. Description: Specific CTL activity against transfected target cells. The note with it: CTL line or clone raised by the peptide, vs control transfectants. How it is done:
as §1, §2
The established CTL line raised against these peptides were examined for their ability to recognize the target cells expressing KIF20A and HLA-A*2402. […]

A further data set concerns PK59 cancer cell line. In words: 51Cr release cytotoxicity assay. The note with it: PK59 expressing KIF20A but not HLA-A24. How it is done:
as §3, §4, §5

The test system of data set [9] is peptide-pulsed T2 cells. In words: IFN-gamma ELISPOT assay (positive wells). Conditions: HLA-A02 peptides; as compared to the control. The essentials: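 CD8+ T cells from HLA-A*2402 and/or HLA-A*0201 donors were stimulated 1:20 with autologous monocyte-derived DCs pulsed with 20 µg/ml peptide plus β2-microglobulin, in IL-7, with IL-2 added, restimulated on days 7 and 14. On day 21, IFN-γ ELISPOT against peptide-pulsed T2 or A24-LCL cells (1×10^4/well) scored wells as positive, with CTL lines confirmed by ELISA.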

Data set [10] concerns peptide-pulsed T2 cells. In words: CTL line establishment, IFN-gamma ELISA. The note with it: HLA-A02 peptides; vs target without peptide pulse. In outline:
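CTLs expanded with MMC-inactivated B-lymphoblastoid lines, 40 ng/ml anti-CD3 and IL-2 (120 IU/ml day 1, then 30 IU/ml on days 5, 8, 11). Peptide-pulsed T2 or A24-LCL stimulators (1×10^4/well) incubated with cultured wells or limiting-dilution clones as responders; IFN-gamma detected by ELISPOT (positive wells) and ELISA (established CTL lines).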

Data set [11] deals with COS7 transfected with full length HIG2 gene and HLA-A*0201. In words: Specific CTL activity against transfected target cells. Conditions: CTL line raised by the peptide; vs control transfectants; listed as HIG2-A02-9-15. How it is done: as §1, §2
(§6) The established CTL line raised against these peptides were examined for their ability to recognize the target cells expressing HIG2 and HLA-A*0201. […] 293T or COS7 transfected with full length ECT2 but not HLA-A*0201 and 293T or COS7 transfected with HLA-A*0201 but not full length ECT2 (or replaced other gene e.g. FoxP3 or TTK) were prepared as controls.

Data set [12] deals with 293T transfected with full length HIG2 gene and HLA-A*0201. Described as above. Conditions: CTL line raised by the peptide; vs control transfectants; listed as HIG2-A02-9-8. The method, then:
as §1, §2, §6

With “DFQDsVFNDL (DFQDSVFNDL; not fully specified; printed as DFQDsVFNDL) [SEQ ID NO: 101]”, in data set [1] (listed as ECT2-A24-10-101), the “Specific CTL activity against COS7 transfected with both ECT2 and HLA-A24” value is recorded as “highest specific CTL activity; also recorded: high specific CTL activity”. In addition, the “IFN-gamma production by IFN-gamma ELISPOT assay” value (“IFN-gamma production” below) in [2] is reported as “potent IFN-gamma production”. For the same substance, the “Establishment of CTL line, specific CTL activity against the peptide-pulsed target determined by ELISA” value (from here on “Establishment of CTL line”) in data set [3] is listed as “CTL lines were established”.
“FILPvLGAVL (FILPVLGAVL; not fully specified; printed as FILPvLGAVL) [SEQ ID NO: 344]”: in data set [2], the “IFN-gamma production” value is “potent IFN-gamma production”. Further, the “Specific CTL activity against COS7 transfected with both CDH3 and HLA-A24” value in data set [4] was “highest specific CTL activity; also recorded: high specific CTL activity”. In addition, the “CTL activities of CTL clones against the peptide-pulsed target” value (“CTL activities of CTL clones” below) in [5] is “potent and specific CTL activities”. The “Establishment of CTL line” value in data set [3] is on record as “CTL lines were established”.
GLNPLTSYV [SEQ ID NO: 376, GLNPLTSYV]: the “Cytotoxic activity of CTL line against target cells pulsed with the peptide (Cr-release assay)” value in data set [6] is “very potent specific cytotoxic activity”.
As for KLNTEIRDV [SEQ ID NO: 379, KLNTEIRDV], the “Cytotoxic activity of CTL line against target cells pulsed with the peptide (Cr-release assay)” value in data set [6] is “very potent specific cytotoxic activity”.
Turning to LYLKLLPYV [SEQ ID NO: 395], the “Cytotoxic activity against MIAPaca2 (Cr-release assay)” value in data set [7] (INHBB-positive, compared to CAki-2, listed as INHBB-A24-9-180) is given as “remarkably high cytotoxic effect; also recorded: high specific cytotoxic activity”. In addition, the “Cytotoxic activity against Caki-1 (Cr-release assay)” value in the data set with Caki-1 cancer cell line is on record as “did not show significant specific cytotoxic activity”.
Turning to “SEQ ID NO: 178: HLA-A*2402 binding 9-mer peptide derived from KIF20A (IFSIRILHL)”, the “Specific CTL activity against COS7 transfected with both KIF20A and HLA-A24” value in [8] (listed as KIF20A-A24-9-383) is recorded as “highest specific CTL activity; also recorded: high specific CTL activity”. Also, the “IFN-gamma production” value in [2] is “potent IFN-gamma production”. Besides, the “Establishment of CTL line” value in data set [3] is listed as “CTL lines were established”.
As for “SEQ ID NO: 194: HLA-A*2402 binding 10-mer peptide derived from KIF20A (KVYLRVRPLL)”, the “Specific CTL activity against COS7 transfected with both KIF20A and HLA-A24” value in data set [8] (listed as KIF20A-A24-10-66) was “highest specific CTL activity”. For the same substance, the “IFN-gamma production” value in data set [2] is “potent IFN-gamma production”. Moreover, the “CTL activities of CTL clones” value in data set [5] is “potent and specific CTL activities”. Also, the “Establishment of CTL line” value in data set [3] was “CTL lines were established”.
In the case of SFFEIYNELL [SEQ ID NO: 186], the “Cytotoxic activity against MIAPaca2 (Cr-release assay)” value in [7] (Miapaca2 expressing both KIF20A and HLA-A24, listed as KIF20A-A24-10-304) is listed as “remarkably high cytotoxic effect; also recorded: very potent specific cytotoxic activity”. For the same substance, in the data set with PK59 cancer cell line, the “Cytotoxic activity against PK59 (Cr-release assay)” value was “did not show significant specific cytotoxic activity”.
Regarding “SYVEeEMPQI (SYVEEEMPQI; not fully specified; printed as SYVEeEMPQI) [SEQ ID NO: 100]”, in data set [1] (listed as ECT2-A24-10-40), the “Specific CTL activity against COS7 transfected with both ECT2 and HLA-A24” value was “highest specific CTL activity; also recorded: high specific CTL activity”. The “IFN-gamma production” value in [2] is “potent IFN-gamma production”. Moreover, the “CTL activities of CTL clones” value in data set [5] is “potent and specific CTL activities”. Besides, the “Establishment of CTL line” value in [3] was “CTL lines were established”.
As to TLLSIFVRV [SEQ ID NO: 116], the “IFN-gamma production” value in the data set with peptide-pulsed T2 cells [9] is listed as “potent IFN-gamma production”. In the data set with peptide-pulsed T2 cells [10], the “Establishment of CTL line” value is on record as “CTL lines were established”. Further, the “Specific CTL activity against COS7 transfected with both HIG2 and HLA-A02” value in data set [11] is “highest specific CTL activity; also recorded: high specific CTL activity”.
On to YLLGVVLTL [SEQ ID NO: 114], for which, in the data set on peptide-pulsed T2 cells [9], the “IFN-gamma production” value was “potent IFN-gamma production”. Besides, the “Establishment of CTL line” value in the data set on peptide-pulsed T2 cells [10] was “CTL lines were established”. Further, the “Specific CTL activity against 293T transfected with both HIG2 and HLA-A02” value in data set [12] is recorded as “highest specific CTL activity; also recorded: high specific CTL activity”.
